SMILES	melting point [°C]
O=C(O)CCNC(=O)C1(NC(=O)Cc2ccc(OCc3ccc(F)cc3)cc2)Cc2ccc(-c3ccc(Cl)cc3)cc2C1 (stereo not shown) [Example B150, N-({5-(4-Chlorophenyl)-2-[({4-[(4-fluorobenzyl)oxy]phenyl}acetyl)amino]-2,3-dihydro-1H-inden-2-yl)carbonyl)-O-alanine]	214
O=C(Cc1ccc(OCc2cccs2)cc1)NC1(C(=O)O)Cc2ccc(-c3ccc(Cl)cc3)cc2C1 (stereo not shown) [Example B151, 5-(4-Chlorophenyl)-2-({[4-(2-thienylmethoxy)phenyl]acetyl}amino)indan-2-carboxylic acid]	201
Cc1nc(COc2ccc(CC(=O)NC3(C(=O)O)Cc4ccc(-c5ccc(Cl)cc5)cc4C3)cc2)cs1 (stereo not shown) [Example B152]	209 to 210
O=C(Cc1ccc(OCc2c(Cl)cccc2Cl)cc1)NC1(C(=O)O)Cc2ccc(-c3ccc(Cl)cc3)cc2C1 (stereo not shown) [Example B153]	204 to 205
O=C(Cc1ccc(OC2CCc3ccccc32)cc1)NC1(C(=O)O)Cc2ccc(-c3ccc(Cl)cc3)cc2C1 (stereo not shown) [Example B154, 5-(4-Chlorophenyl)-2-({[4-(2,3-dihydro-1H-inden-1-yloxy)phenyl]acetyl)amino)indan-2-carboxylic acid]	194 to 195
O=C(Cc1ccc(OC2Cc3ccccc3C2)cc1)NC1(C(=O)O)Cc2ccc(-c3ccc(Cl)cc3)cc2C1 (stereo not shown) [Example B155, 5-(4-Chlorophenyl)-2-({[4-(2,3-dihydro-1H-inden-2-yloxy)phenyl]acetyl}amino)indan-2-carboxylic acid]	233 to 234
Cc1nc(COc2ccc(CC(=O)NC3(C(=O)O)Cc4ccc(-c5ccc(Cl)cc5)cc4C3)cc2)co1 (stereo not shown) [Example B156, 5-(4-Chlorophenyl)-2-[({4-[(2-methyl-1,3-oxazol-4-yl)methoxy]phenyl}acetyl)amino]indan-2-carboxylic acid]	187 to 189
Cc1nc2ccccc2n1Cc1ccc(C(=O)NC2(C(=O)O)Cc3ccc(-c4ccc(Cl)cc4)cc3C2)cc1 (stereo not shown) [Example B157, 5-(4-Chlorophenyl)-2-({4-[(2-methyl-1H-benzimidazol-1-yl)methyl]benzoyl}amino)indan-2-carboxylic acid]	258 to 259
O=C(Cc1ccc(Oc2nc3ccccc3s2)cc1)NC1(C(=O)O)Cc2ccc(-c3ccc(Cl)cc3)cc2C1 (stereo not shown) [Example B158, 2-({[4-(1,3-Benzothiazol-2-yloxy)phenyl]acetyl}amino)-5-(4-chlorophenyl)indan-2-carboxylic acid]	241 to 243
Cc1cccc(C)c1-c1ccc2c(c1)CC(NC(=O)Cc1ccc(OCc3ccc(F)cc3)cc1)(C(=O)O)C2 (stereo not shown) [Example B160, 5-(2,6-Dimethylphenyl)-2-[({4-[(4-fluorobenzyl)oxy]phenyl}acetyl)amino]indan-2-carboxylic acid]	210 to 212
O=C(Cc1ccc(Oc2ccc(F)cc2)cc1)NC1(C(=O)O)Cc2ccc(-c3ccc(Cl)cc3)cc2C1 (stereo not shown) [Example B161, 5-(4-Chlorophenyl)-2-({[4-(4-fluorophenoxy)phenyl]acetyl}amino)indan-2-carboxylic acid]	232 to 234
O=C(Cc1ccc(NCc2ccc(F)cc2)cc1)NC1(C(=O)O)Cc2ccc(-c3ccc(Cl)cc3)cc2C1 (stereo not shown) [Example B162, 5-(4-Chlorophenyl)-2-[({4-[(4-fluorobenzyl)amino]phenyl}acetyl)amino]indan-2-carboxylic acid]	188 to 190
O=C(Cc1ccc(OCc2ccncc2)cc1)NC1(C(=O)O)Cc2ccc(-c3ccc(Cl)cc3)cc2C1 (stereo not shown) [Example B163, 5-(4-Chlorophenyl)-2-({[4-(pyridin-4-ylmethoxy)phenyl]acetyl}amino)indan-2-carboxylic acid]	128
O=C(Cc1ccc(Oc2ccsc2)cc1)NC1(C(=O)O)Cc2ccc(-c3ccc(Cl)cc3)cc2C1 (stereo not shown) [Example B164, 5-(4-Chlorophenyl)-2-({[4-(3-thienyloxy)phenyl]acetyl}amino)indan-2-carboxylic acid]	226 to 228
Cc1noc(C)c1COc1ccc(CC(=O)NC2(C(=O)O)Cc3ccc(-c4ccc(Cl)cc4)cc3C2)cc1 (stereo not shown) [Example B165]	200 to 201
O=C(CC1CCN(C(=O)c2ccc(F)cc2)CC1)NC1(C(=O)O)Cc2ccc(-c3ccc(Cl)cc3)cc2C1 (stereo not shown) [Example B166, 5-(4-Chlorophenyl)-2-({[1-(4-fluorobenzoyl)piperidin-4-yl]acetyl}amino)indan-2-carboxylic acid]	242
O=C(CC1CCN(C(=O)Cc2ccc(F)cc2)CC1)NC1(C(=O)O)Cc2ccc(-c3ccc(Cl)cc3)cc2C1 (stereo not shown) [Example B167, 5-(4-Chlorophenyl)-2-[({1-[(4-fluorophenyl)acetyl]piperidin-4-yl}acetyl)amino]indan-2-carboxylic acid]	196
O=C(CCCSc1nc2ccccc2s1)NC1(C(=O)O)Cc2ccc(-c3ccc(Cl)cc3)cc2C1 (stereo not shown) [Example B168, 2-{[4-(1,3-Benzothiazol-2-ylthio)-butanoyl]amino}-5-(4-chlorophenyl)indan-2-carboxylic acid]	210 to 212
O=C(CSc1nc2ccccc2o1)NC1(C(=O)O)Cc2ccc(-c3ccc(Cl)cc3)cc2C1 (stereo not shown) [Example B169, 2-{[(1,3-Benzoxazol-2-ylthio)acetyl]amino}-5-(4-chlorophenyl)indan-2-carboxylic acid]	227 to 230

SMILES	melting point [°C]
O=C(CCCSc1ccc2ccccc2c1)NC1(C(=O)O)Cc2ccc(-c3ccc(Cl)cc3)cc2C1 (stereo not shown) [Example B170, 5-(4-Chlorophenyl)-2-{[4-(2-naphthylthio)butanoyl]amino}indan-2-carboxylic acid]	210 to 212
O=C(CSc1ccc2ccccc2c1)NC1(C(=O)O)Cc2ccc(-c3ccc(Cl)cc3)cc2C1 (stereo not shown) [Example B171, 5-(4-Chlorophenyl)-2-{[(2-naphthylthio)acetyl]amino)indan-2-carboxylic acid]	223 to 225
O=C(CCSc1ccc2ccccc2c1)NC1(C(=O)O)Cc2ccc(-c3ccc(Cl)cc3)cc2C1 (stereo not shown) [Example B172, 5-(4-Chlorophenyl)-2-{[3-(2-naphthylthio)propanoyl]amino}indan-2-carboxylic acid]	215
COc1ccc(CC(=O)NC2(C(=O)O)Cc3ccc(-c4ccc(Cl)cc4)cc3C2)cc1 (stereo not shown) [Example B173, 5-(4-Chlorophenyl)-2-{[(4-methoxyphenyl)acetyl]amino)indan-2-carboxylic acid]	231 to 233
O=C(Cc1c[nH]c2ccccc12)NC1(C(=O)O)Cc2ccc(-c3ccc(Cl)cc3)cc2C1 (stereo not shown) [Example B176]	209 to 211
O=C(Cc1ccc(-c2ccccc2)cc1)NC1(C(=O)O)Cc2ccc(-c3ccc(Cl)cc3)cc2C1 (stereo not shown) [Example B177, 2-[(Biphenyl-4-ylacetyl)amino]-5-(4-chlorophenyl)indan-2-carboxylic acid]	240 to 243
O=C(Cc1ccccn1)NC1(C(=O)O)Cc2ccc(-c3ccc(Cl)cc3)cc2C1 (stereo not shown) [Example B178, 5-(4-Chlorophenyl)-2-[(pyridin-2-ylacetyl)amino]indan-2-carboxylic acid]	189
O=C(NC1(C(=O)O)Cc2ccc(-c3ccc(Cl)cc3)cc2C1)[C@@H](O)c1ccccc1 (stereo partly drawn) [Example B179, 5-(4-Chlorophenyl)-2-{[(2S)-2-hydroxy-2-phenylacetyl]amino}indan-2-carboxylic acid]	156
O=C(Nc1ccc(F)cc1)NC1(C(=O)O)Cc2ccc(-c3ccc(Cl)cc3)cc2C1 (stereo not shown) [Example B180, 5-(4-Chlorophenyl)-2-({[(4-fluorophenyl)amino]carbonyl}amino)indan-2-carboxylic acid]	177
O=C(Cc1cccc(OCc2ccccc2)c1)NC1(C(=O)O)Cc2ccc(-c3ccc(Cl)cc3)cc2C1 (stereo not shown) [Example B181, 2-({[3-(Benzyloxy)phenyl]acetyl}amino)-5-(4-chlorophenyl)indan-2-carboxylic acid]	207
O=C(Cc1ccc(Oc2ccccc2)cc1)NC1(C(=O)O)Cc2ccc(-c3ccc(Cl)cc3)cc2C1 (stereo not shown) [Example B183, 5-(4-Chlorophenyl)-2-{[(4-phenoxyphenyl)acetyl]amino)indan-2-carboxylic acid]	227 to 228
O=C(Cc1ccc(OCc2ccc(F)cc2)cc1)NC1(C(=O)O)Cc2ccc(-c3ccccc3Cl)cc2C1 (stereo not shown) [Example B184, 5-(2-Chlorophenyl)-2-[({4-[(4-fluorobenzyl)oxy]phenyl}acetyl}amino}indan-2-carboxylic acid]	213 to 215
O=C(Cc1ccc(OCc2ccc(F)cc2)cc1)NC1(C(=O)O)Cc2ccc(-c3cccc(Cl)c3)cc2C1 (stereo not shown) [Example B185, 5-(3-Chlorophenyl)-2-[({4-[(4-fluorobenzyl)oxy]phenyl}acetyl)amino]indan-2-carboxylic acid]	173 to 174
O=C(Cc1ccc(OCc2ccc(F)cc2)cc1)NC1(C(=O)O)Cc2ccc(-c3ccc(Cl)s3)cc2C1 (stereo not shown) [Example B186, 5-(5-Chloro-2-thienyl)-2-[({4-[(4-fluorobenzyl)oxy]phenyl}acetyl)amino]indan-2-carboxylic acid]	214 to 216
CC(C)(C)OC(=O)c1cccc(COc2ccc(CC(=O)NC3(C(=O)O)Cc4ccc(-c5ccc(Cl)cc5)cc4C3)cc2)c1 (stereo not shown) [Example B187, 2-{[(4-{[3-(tert-Butoxycarbonyl)benzyl]oxy}phenyl)acetyl]amino}-5-(4-chlorophenyl)indan-2-carboxylic acid]	177 to 179
O=C(Cc1ccc(OCc2cccc(C(=O)O)c2)cc1)NC1(C(=O)O)Cc2ccc(-c3ccc(Cl)cc3)cc2C1 (stereo not shown) [Example B188, 2-[({4-[(3-Carboxybenzyl)oxy]phenyl}acetyl)amino]-5-(4-chlorophenyl)indan-2-carboxylic acid]	220 to 222
CC(C)(C)OC(=O)c1ccccc1COc1ccc(CC(=O)NC2(C(=O)O)Cc3ccc(-c4ccc(Cl)cc4)cc3C2)cc1 (stereo not shown) [Example B189, 2-{[(4-{[2-(tert-Butoxycarbonyl)benzyl]oxy}phenyl)acetyl]amino}-5-(4-chlorophenyl)indan-2-carboxylic acid]	170 to 171
O=C(Cc1ccc(OCc2ccccc2C(=O)O)cc1)NC1(C(=O)O)Cc2ccc(-c3ccc(Cl)cc3)cc2C1 (stereo not shown) [Example B190, 2-[({4-[(2-Carboxybenzyl)oxy]phenyl}acetyl)amino]-5-(4-chlorophenyl)indan-2-carboxylic acid]	209 to 211
